Experimental data from US20200253877A1, “GEMCABENE, PHARMACEUTICALLY ACCEPTABLE SALTS THEREOF, COMPOSITIONS THEREOF AND METHODS OF USE THEREFOR” (NEUROBO PHARMACEUTICALS, INC., priority 2018, published 2020).

Legend:
[1] = test system: STAM™ mice, a murine model of NASH-HCC; test: Murine STAM model of NASH-HCC: whole blood, plasma and liver biochemistry; conditions: mean ± SD, n = 8; for Fasting blood glucose / Plasma insulin: Day 18 after 8 hours of fasting; for Liver free fatty acid / Liver hydroxyproline / Liver triglyceride / Non-fasting blood glucose / Plasma ApoC-III / Plasma CRP / Plasma adiponectin / Plasma alanine aminotransferase / Plasma alkaline phosphatase / Plasma aspartate aminotransferase / Plasma blood urea nitrogen / Plasma creatinine / Plasma gamma-glutamyl transferase / Plasma ketone body / Plasma leptin / Plasma total bilirubin / Plasma total cholesterol / Plasma triglyceride: at termination (Day 21)
[2] = test system: STAM™ mice, a murine model of NASH-HCC; test: Murine STAM model of NASH-HCC: liver histology (H&E, NAFLD Activity Score, Sirius red fibrosis area); format: in vivo, mouse; design: key to NAS (mean ± SD) / NAFLD Activity Score: NAS = unweighted sum of steatosis, lobular inflammation, ballooning scores; conditions: for Lobular Inflammation score 0: number of mice: score 0 = No foci; for Hepatocyte Ballooning score 0: number of mice: score 0 = None; for Steatosis score 1: number of mice: score 1 = 5-33%; for Hepatocyte Ballooning score 1: number of mice: score 1 = Few balloon cells; for Lobular Inflammation score 2: number of mice: score 2 = 2-4 foci/200x; for Hepatocyte Ballooning score 2: number of mice: score 2 = Many cells/prominent ballooning; for NAFLD Activity Score / Sirius red-positive area: STAM mice
Description: The present invention further provides methods for reducing a fibrosis score or a nonalcoholic fatty liver disease activity score in a subject, comprising administering to a subject in need thereof an effective amount of a tablet of the invention, gemcabene calcium salt hydrate Crystal Form 4, gemcabene calcium salt hydrate Crystal Form 5 or gemcabene calcium salt hydrate Crystal Form 6. The nonalcoholic fatty liver disease activity score (NAS or NAFLD score) is a composite score that measures changes in NAFLD during therapeutic trials. NAS is a composite score comprised of three components that includes scores for steatosis, lobular inflammation and hepatocyte ballooning (Table 36). NAS is the unweighted sum of the scores for steatosis, lobular inflammation and hepatocyte ballooning. Steatosis grade is quantified as the percentage of hepatocytes that contain fat droplets. The fibrosis stage of the liver is evaluated separately from NAS by histological evaluation of the intensity of Sirius red staining of collagen in the pericentral region of liver lobules.
A study was performed to evaluate the efficacy of gemcabene calcium salt hydrate Crystal Form 1 having a PSD90 of 52 μm as measured by laser light diffraction, in treating non-alcoholic steatosis hepatitis (NASH) in the murine STAM™ model of NASH-HCC.
Briefly, two-day old neonatal C57BL/6 male mice were administered low-dose streptozotocin (STZ), and were subsequently fed a HFC diet from 4 weeks of age. In this model, the mice typically develop liver steatosis and diabetes, reaching steatohepatitis within 3 weeks, followed by cirrhosis within 8 weeks, and carcinoma within 16 weeks. In the current study, mice were administered daily oral gemcabene calcium salt hydrate Crystal Form 1 starting at week 6 of age and were sacrificed at week 9. […] These STAM™ groups were orally administered from week 6 one of the following: water-vehicle, gemcabene calcium salt hydrate Crystal Form 1 at 30, 100 and 300 mg/kg daily, or telmisartan ([…]®) 10 mg/kg daily. […] All groups were sacrificed at week 9. Vehicle, gemcabene calcium salt hydrate Crystal Form 1, or telmisartan were administered by oral gavage once daily.
For Hematoxylin and Eosin (H&E) staining, sections were cut from paraffin blocks of liver tissue prefixed in Bouin's solution and stained with Lillie-Mayer's Hematoxylin (Muto Pure Chemicals Co., Ltd., Japan) and eosin solution (Wako Pure Chemical Industries). NAFLD Activity score (NAS) was calculated according to the criteria of Kleiner, D E. Et al., Hepatology, 2005; 41:1313-1321. To visualize collagen deposition, Bouin's fixed liver sections were stained using picro-Sirius red solution (Waldeck, Germany). For Masson Trichrome staining, the sections were stained with Masson's Trichrome staining Kit (Sigma, USA) according to the manufacturer's instructions.
For quantitative analysis of fibrosis area, bright field images of Sirius red-stained sections were captured around the central vein using a digital camera (DFC295; Leica, Germany) at 200-fold magnification, and the positive areas in 5 fields/section were measured using ImageJ software (National Institute of Health, USA). Samples were analyzed in a blinded fashion.

CC(C)(CCCCOCCCCC(C)(C)C(=O)O)C(=O)O [gemcabene, 6-(5-carboxy-5-methyl-hexyloxy)-2,2-dimethyl-hexanoic acid]
Fasting blood glucose ([1]; 30 mg/kg PO QD): 437 ± 42 mg/dL
Plasma insulin ([1]; 30 mg/kg PO QD): 0.13 ± 0.04 ng/mL
Liver free fatty acid ([1]; 30 mg/kg PO QD): 35.1 ± 8.4 pEq/g liver
Liver hydroxyproline ([1]; 30 mg/kg PO QD): 0.66 ± 0.12 μg/mg total protein
Liver triglyceride ([1]; 30 mg/kg PO QD): 49.2 ± 8.6 mg/g liver
Non-fasting blood glucose ([1]; 30 mg/kg PO QD): 607 ± 48 mg/dL
Plasma ApoC-III ([1]; 30 mg/kg PO QD): 6.6 ± 0.8 gg/mL
Plasma CRP ([1]; 30 mg/kg PO QD): 2.5 ± 0.3 gg/mL
Plasma adiponectin ([1]; 30 mg/kg PO QD): 4.1 ± 0.9 gg/mL
Plasma alanine aminotransferase ([1]; 30 mg/kg PO QD): 41 ± 15 U/L
Plasma alkaline phosphatase ([1]; 30 mg/kg PO QD): 382 ± 78 U/L
Plasma aspartate aminotransferase ([1]; 30 mg/kg PO QD): 100 ± 44 U/L
Plasma blood urea nitrogen ([1]; 30 mg/kg PO QD): 25.0 ± 3.9 mg/dL
Plasma creatinine ([1]; 30 mg/kg PO QD): 0.1 ± 0.0 mg/dL
Plasma gamma-glutamyl transferase ([1]; 30 mg/kg PO QD): 1 ± 0 U/L
Plasma ketone body ([1]; 30 mg/kg PO QD): 9.43 ± 2.35 m M
Plasma leptin ([1]; 30 mg/kg PO QD): 3.1 ± 1.2 ng/mL
Plasma total bilirubin ([1]; 30 mg/kg PO QD): 0.2 ± 0.1 mg/dL
Plasma total cholesterol ([1]; 30 mg/kg PO QD): 194 ± 17 mg/dL
Plasma triglyceride ([1]; 30 mg/kg PO QD): 319 ± 198 mg/dL
Fasting blood glucose ([1]; 100 mg/kg PO QD): 441 ± 46 mg/dL
Plasma insulin ([1]; 100 mg/kg PO QD): 0.17 ± 0.06 ng/mL
Liver free fatty acid ([1]; 100 mg/kg PO QD): 38.4 ± 8.5 pEq/g liver
Liver hydroxyproline ([1]; 100 mg/kg PO QD): 0.74 ± 0.38 μg/mg total protein
Liver triglyceride ([1]; 100 mg/kg PO QD): 58.4 ± 14.5 mg/g liver
Non-fasting blood glucose ([1]; 100 mg/kg PO QD): 653 ± 53 mg/dL
Plasma ApoC-III ([1]; 100 mg/kg PO QD): 6.0 ± 2.5 gg/mL
Plasma CRP ([1]; 100 mg/kg PO QD): 1.9 ± 0.3 gg/mL
Plasma adiponectin ([1]; 100 mg/kg PO QD): 4.1 ± 0.5 gg/mL
Plasma alanine aminotransferase ([1]; 100 mg/kg PO QD): 27 ± 7 U/L
Plasma alkaline phosphatase ([1]; 100 mg/kg PO QD): 642 ± 167 U/L
Plasma aspartate aminotransferase ([1]; 100 mg/kg PO QD): 88 ± 32 U/L
Plasma blood urea nitrogen ([1]; 100 mg/kg PO QD): 29.8 ± 4.3 mg/dL
Plasma creatinine ([1]; 100 mg/kg PO QD): 0.1 ± 0.1 mg/dL
Plasma gamma-glutamyl transferase ([1]; 100 mg/kg PO QD): 1 ± 0 U/L
Plasma ketone body ([1]; 100 mg/kg PO QD): 5.75 ± 3.24 m M
Plasma leptin ([1]; 100 mg/kg PO QD): 4.3 ± 1.2 ng/mL
Plasma total bilirubin ([1]; 100 mg/kg PO QD): 0.3 ± 0.2 mg/dL
Plasma total cholesterol ([1]; 100 mg/kg PO QD): 228 ± 37 mg/dL
Plasma triglyceride ([1]; 100 mg/kg PO QD): 191 ± 57 mg/dL
Fasting blood glucose ([1]; 300 mg/kg PO QD): 407 ± 15 mg/dL
Plasma insulin ([1]; 300 mg/kg PO QD): 0.13 ± 0.04 ng/mL
Liver free fatty acid ([1]; 300 mg/kg PO QD): 46.0 ± 5.5 pEq/g liver
Liver hydroxyproline ([1]; 300 mg/kg PO QD): 0.70 ± 0.10 μg/mg total protein
Liver triglyceride ([1]; 300 mg/kg PO QD): 56.0 ± 13.9 mg/g liver
Non-fasting blood glucose ([1]; 300 mg/kg PO QD): 638 ± 63 mg/dL
Plasma ApoC-III ([1]; 300 mg/kg PO QD): 6.2 ± 0.7 gg/mL
Plasma CRP ([1]; 300 mg/kg PO QD): 1.9 ± 0.4 gg/mL
Plasma adiponectin ([1]; 300 mg/kg PO QD): 4.9 ± 0.5 gg/mL
Plasma alanine aminotransferase ([1]; 300 mg/kg PO QD): 32 ± 14 U/L
Plasma alkaline phosphatase ([1]; 300 mg/kg PO QD): 794 ± 57 U/L
Plasma aspartate aminotransferase ([1]; 300 mg/kg PO QD): 147 ± 122 U/L
Plasma blood urea nitrogen ([1]; 300 mg/kg PO QD): 30.1 ± 5.8 mg/dL
Plasma creatinine ([1]; 300 mg/kg PO QD): 0.2 ± 0.1 mg/dL
Plasma gamma-glutamyl transferase ([1]; 300 mg/kg PO QD): 1 ± 0 U/L
Plasma ketone body ([1]; 300 mg/kg PO QD): 5.68 ± 3.08 m M
Plasma leptin ([1]; 300 mg/kg PO QD): 3.2 ± 1.1 ng/mL
Plasma total bilirubin ([1]; 300 mg/kg PO QD): 0.3 ± 0.1 mg/dL
Plasma total cholesterol ([1]; 300 mg/kg PO QD): 234 ± 45 mg/dL
Plasma triglyceride ([1]; 300 mg/kg PO QD): 149 ± 32 mg/dL
Lobular Inflammation score 1: number of mice ([2]; 30 mg/kg PO QD, n = 8): 2
NAS (mean ± SD) ([2]; 30 mg/kg PO QD, n = 8): 3.4 ± 1.1
Lobular Inflammation score 0: number of mice ([2]; 30 mg/kg PO QD, n = 8): 1
Hepatocyte Ballooning score 0: number of mice ([2]; 30 mg/kg PO QD, n = 8): 4
Steatosis score 1: number of mice ([2]; 30 mg/kg PO QD, n = 8): 8
Hepatocyte Ballooning score 1: number of mice ([2]; 30 mg/kg PO QD, n = 8): 2
Lobular Inflammation score 2: number of mice ([2]; 30 mg/kg PO QD, n = 8): 4
Hepatocyte Ballooning score 2: number of mice ([2]; 30 mg/kg PO QD, n = 8): 2
Lobular Inflammation score 3: number of mice ([2]; 30 mg/kg PO QD, n = 8, score 3 = >4 foci/200x): 1
NAFLD Activity Score ([2]; 30 mg/kg): 3.4
Sirius red-positive area ([2]; 30 mg/kg): 0.56%
Lobular Inflammation score 1: number of mice ([2]; 100 mg/kg PO QD, n = 8): 1
NAS (mean ± SD) ([2]; 100 mg/kg PO QD, n = 8): 3.6 ± 1.4
Lobular Inflammation score 0: number of mice ([2]; 100 mg/kg PO QD, n = 8): 2
Hepatocyte Ballooning score 0: number of mice ([2]; 100 mg/kg PO QD, n = 8): 1
Steatosis score 1: number of mice ([2]; 100 mg/kg PO QD, n = 8): 8
Hepatocyte Ballooning score 1: number of mice ([2]; 100 mg/kg PO QD, n = 8): 4
Lobular Inflammation score 2: number of mice ([2]; 100 mg/kg PO QD, n = 8): 5
Hepatocyte Ballooning score 2: number of mice ([2]; 100 mg/kg PO QD, n = 8): 3
NAFLD Activity Score ([2]; 100 mg/kg): 3.6
Sirius red-positive area ([2]; 100 mg/kg): 0.53%
Lobular Inflammation score 1: number of mice ([2]; 300 mg/kg PO QD, n = 8): 2
NAS (mean ± SD) ([2]; 300 mg/kg PO QD, n = 8): 2.5 ± 0.8
Steatosis score 0: number of mice ([2]; 300 mg/kg PO QD, n = 8, score 0 = <5%): 3
Lobular Inflammation score 0: number of mice ([2]; 300 mg/kg PO QD, n = 8): 2
Hepatocyte Ballooning score 0: number of mice ([2]; 300 mg/kg PO QD, n = 8): 4
Steatosis score 1: number of mice ([2]; 300 mg/kg PO QD, n = 8): 5
Hepatocyte Ballooning score 1: number of mice ([2]; 300 mg/kg PO QD, n = 8): 3
Lobular Inflammation score 2: number of mice ([2]; 300 mg/kg PO QD, n = 8): 4
Hepatocyte Ballooning score 2: number of mice ([2]; 300 mg/kg PO QD, n = 8): 1
NAFLD Activity Score ([2]; 300 mg/kg): 2.5
Sirius red-positive area ([2]; 300 mg/kg): 0.59%
